Data published in patent US20080177220A1, “Ultrasound-Mediated Transcleral Drug Delivery” (THE CURATORS OF THE UNIVERSITY OF MISSOURI, priority 2006, published 2008).

Assays:
[1] = Diffusion of Sodium Fluorescein formulation through RCS tissue in a Franz diffusion cell at different ultrasound standoff distances; format: in vitro ADME, New Zealand albino rabbits; settings: treat far, 1.00±0.01 cm standoff distance, versus 0.50±0.01 cm (treat near) / control without ultrasound, rabbit RCS tissue, FIG. 4
Source text: By using a standoff distance 136, drug transport can be optimized. A standoff distance is desired to optimize the cavitation effects in the Fraunhofer zone of the ultrasonic energy field. […] The control results 402 represent normal diffusion action of the formulation in the absence of ultrasound. The treat near results 404 represent diffusion of the formulation achieved using a 0.50±0.01 cm standoff distance. The treat far results 406 represent diffusion of the formulation achieved using a 1.00±0.01 cm standoff distance. […] The optimum standoff distance can vary depending on a number of factors, such as, for example, the coupling media, the transducer configuration, the targeted tissue, and the pharmaceutical formulation being administered. The optimum standoff distance for transcleral drug delivery differs from drug delivery attempted through the cornea due to the numerous factors discussed above, including inherent tissue differences and transport phenomena occurring in the blood-retina barrier.

[2] = Diffusion of Sodium Fluorescein formulation across Cellu-Por synthetic membrane simulating ocular tissue, with or without ultrasound; format: in vitro ADME; settings: ultrasound applied concurrently during application of the formulation, FIG. 3
Source text: The control results 302 display the effect of allowing the formulation to diffuse naturally, while the ultrasound results 304 display the effect of applying ultrasound concurrently during application of the formulation.

O=C([O-])c1ccccc1-c1c2ccc(=O)cc-2oc2cc([O-])ccc12.[Na+].[Na+] [Sodium Fluorescein]
permeability increase using the greater standoff distance [1]: approximately 30 times higher
permeability with ultrasonic waves versus control (natural diffusion) [2]: substantially higher
